Results published in the NIST ThermoML archive (doi:10.1016/j.jct.2009.05.009).
± gives the expanded uncertainty stated by the source.

Assay: xn = mol fraction of the nth substance listed
Details: 101.3 kPa, Liquid, Vibrating tube method

CCOS(=O)(=O)[O-].CCn1cc[n+](C)c1 [1-ethyl-3-methylimidazolium ethyl sulfate] + O
mass density [kg/m3]
Details	318.15 K	323.15 K	328.15 K	333.15 K	338.15 K	343.15 K
x2 = 0	–	1224.1 ± 2.3	1221.1 ± 2.3	1218.1 ± 2.3	1215.1 ± 2.3	1212 ± 2.3
x2 = 0.0514	–	1223 ± 2.3	1220 ± 2.3	1216.9 ± 2.3	1213.8 ± 2.3	1210.7 ± 2.3
x2 = 0.13	–	1221.3 ± 2.2	1218.2 ± 2.2	1215.2 ± 2.2	1212.1 ± 2.2	1208.9 ± 2.2
x2 = 0.1783	–	1220.1 ± 2.2	1216.9 ± 2.2	1213.9 ± 2.2	1210.9 ± 2.2	1207.8 ± 2.2
x2 = 0.2168	–	1219.1 ± 2.2	1216 ± 2.2	1212.9 ± 2.2	1209.9 ± 2.2	1206.7 ± 2.2
x2 = 0.2642	–	1217.6 ± 2.2	1214.6 ± 2.2	1211.5 ± 2.2	1208.4 ± 2.2	1205.3 ± 2.1
x2 = 0.3054	–	1216.3 ± 2.1	1213.2 ± 2.1	1210.1 ± 2.1	1207 ± 2.1	1203.9 ± 2.1
x2 = 0.3568	–	1214.4 ± 2.1	1211.2 ± 2.1	1208.2 ± 2.1	1205.1 ± 2.1	1201.9 ± 2.1
x2 = 0.4008	–	1212.4 ± 2.1	1209.3 ± 2.1	1206.2 ± 2.1	1203.1 ± 2.1	1200 ± 2.1
x2 = 0.4613	1212.4 ± 2.1	1209.3 ± 2.1	1206.1 ± 2.1	1203.1 ± 2.1	1200 ± 2.1	1196.8 ± 2.1
x2 = 0.5002	1210.1 ± 2.2	1206.9 ± 2.2	1203.8 ± 2.2	1200.7 ± 2.2	1197.6 ± 2.2	1194.3 ± 2.2
x2 = 0.5584	1206 ± 2.2	1202.8 ± 2.2	1199.6 ± 2.2	1196.4 ± 2.2	1193.2 ± 2.2	1189.9 ± 2.2
x2 = 0.6124	1201.1 ± 2.3	1197.8 ± 2.3	1194.6 ± 2.3	1191.4 ± 2.3	1188.1 ± 2.3	1184.7 ± 2.3
x2 = 0.6698	1194.3 ± 2.4	1191 ± 2.4	1187.7 ± 2.4	1184.3 ± 2.4	1180.9 ± 2.5	1177.4 ± 2.5
x2 = 0.7125	1187.6 ± 2.7	1184.3 ± 2.7	1181 ± 2.8	1177.5 ± 2.8	1173.9 ± 2.7	1170.4 ± 2.7
x2 = 0.7635	1177.2 ± 3.1	1173.7 ± 3.1	1170.2 ± 3.1	1166.8 ± 3.1	1163.5 ± 3.1	1159.9 ± 3.1
x2 = 0.8006	1167 ± 3.9	1163.5 ± 3.9	1160 ± 3.9	1156.6 ± 3.9	1153.2 ± 3.9	1149.5 ± 3.9
x2 = 0.8497	1148.9 ± 5	1145.2 ± 5	1141.6 ± 5	1138.3 ± 5	1134.9 ± 5	1131.3 ± 5
x2 = 0.8963	1123 ± 11	1119.6 ± 11	1116.4 ± 11	1112.9 ± 11	1109.3 ± 11	1106 ± 11
